Assay results: publication PMC11876601 (Molecular Systems Biology, 2025)
Where two headings read alike, the source gives them in different places.

Key:
Suit2-07 = assay: cells; design: ATPlite luminescence viability of PDAC cell lines, 11-dose single-agent curves, 4-parameter fit; settings: 72 h, read-out: EC50 [nM]
Method in brief: (§1)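 Drug-combination screening used cells plated at 1000 to 5000 per well one day before treatment. Final DMSO was 0.2%. Each plate held untreated negative-control wells and 5 µM staurosporine positive-control wells.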

HPDE = assay: cells; design: ATPlite luminescence viability of PDAC cell lines, 11-dose single-agent curves, 4-parameter fit; settings: HPDE, 72 h, read-out: EC50 [nM]
Method in brief: as §1

HuP-T4 = assay: cells; design: ATPlite luminescence viability of PDAC cell lines, 11-dose single-agent curves, 4-parameter fit; settings: Homo sapiens, HuP-T4, 72 h, read-out: EC50 [nM]
Method in brief: as §1

PSN-1 = assay: cells; design: ATPlite luminescence viability of PDAC cell lines, 11-dose single-agent curves, 4-parameter fit; settings: Homo sapiens, PSN1, 72 h, read-out: EC50 [nM]
Method in brief: as §1

Dan-G = assay: cells; design: ATPlite luminescence viability of PDAC cell lines, 11-dose single-agent curves, 4-parameter fit; settings: 72 h, read-out: EC50 [nM]
Method in brief: as §1

PaTu-8988-T = assay: cells; design: ATPlite luminescence viability of PDAC cell lines, 11-dose single-agent curves, 4-parameter fit; settings: Homo sapiens, PaTu 8988t, 72 h, read-out: EC50 [nM]
Method in brief: as §1

Capan-1 = assay: cells; design: ATPlite luminescence viability of PDAC cell lines, 11-dose single-agent curves, 4-parameter fit; settings: Homo sapiens, CAPAN-1, 72 h, read-out: EC50 [nM]
Method in brief: as §1

BxPC-3 = assay: cells; design: ATPlite luminescence viability of PDAC cell lines, 11-dose single-agent curves, 4-parameter fit; settings: Homo sapiens, BXPC-3, 72 h, read-out: EC50 [nM]
Method in brief: as §1

Colo-357 = assay: cells; design: ATPlite luminescence viability of PDAC cell lines, 11-dose single-agent curves, 4-parameter fit; settings: Homo sapiens, COLO357, 72 h, read-out: EC50 [nM]
Method in brief: as §1

FAMPAC = assay: cells; design: ATPlite luminescence viability of PDAC cell lines, 11-dose single-agent curves, 4-parameter fit; settings: 72 h, read-out: EC50 [nM]
Method in brief: as §1

AsPC-1 = assay: cells; design: ATPlite luminescence viability of PDAC cell lines, 11-dose single-agent curves, 4-parameter fit; settings: Homo sapiens, ASPC1, 72 h, read-out: EC50 [nM]
Method in brief: as §1

PANC-1 [1] = assay: cells; design: ATPlite luminescence viability of PDAC cell lines, 11-dose single-agent curves, 4-parameter fit; settings: Homo sapiens, PANC-1, 72 h, read-out: EC50 [nM]
Method in brief: as §1

MiaPaCa-2 = assay: cells; design: ATPlite luminescence viability of PDAC cell lines, 11-dose single-agent curves, 4-parameter fit; settings: Homo sapiens, MIA PaCa-2, 72 h, read-out: EC50 [nM]
Method in brief: as §1

PANC-1 [2] = assay: cells; design: Viability of PDAC cell lines, ATPlite luminescence, 11-dose single-agent curve fit; settings: Homo sapiens, PANC-1, 72 h, read-out: EC50 [nM]
Method in brief: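 screening used cells plated at 1000 to 5000 per well one day before treatment. Final DMSO was 0.2%. Each plate held untreated negative-control wells and 5 µM staurosporine positive-control wells.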

[3] = system: HPDE (immortalized pancreatic duct cell line); assay: Drug combination viability screen (ATPlite, 72 h); type: cell-based, human; settings: single agent, HPDE;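 also: area under vehicle-normalized viability curve scaled 0 to 100 percent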
Method: Cell viability was assessed by measuring ATP levels to indicate metabolic activity.
Afterward, small amounts were transferred to 384-well intermediate plates (Greiner Bio-One GmbH, Germany). […] For drug combination screening, 1000 to 5000 cells were seeded into 384-well plates (CulturPlate™, Perkin Elmer, MA, USA) using a Multidrop™ Combi Reagent Dispenser (Thermo Scientific, MA, USA) in 50 µl medium per well 24 h prior to drug treatment (seeding densities see Appendix Table S1). […] The final DMSO concentration in each well was 0.2%. […] Eight wells per plate without library drug served as negative controls, and sixteen wells per plate containing 5 µM Staurosporine served as positive controls. Control plates not containing any drug were used to correct for incubation effects, and data quality was assessed by calculation of Z-prime of positive and negative controls according to1 Z-prime=1−3SDpos+3SDneg/[…] where SD is the standard deviation. […] Dose–response curves from the experimental and hypothetical data were compared, and shifts in AUC were used to describe combination effects (AUC∆ = AUChypothetical − AUCexperimental). […] Only combinations with R^2 > 0.8 in both conditions were considered in the synergy analysis.

Row | EC50 (BxPC-3) [nM] | EC50 (Colo-357) [nM] | EC50 (AsPC-1) [nM] | EC50 (PANC-1 [1]) [nM] | EC50 (MiaPaCa-2) [nM] | SMILES | EC50 (Suit2-07) [nM] | EC50 (HPDE) [nM] | EC50 (HuP-T4) [nM] | EC50 (PSN-1) [nM] | EC50 (Dan-G) [nM] | EC50 (PaTu-8988-T) [nM] | EC50 (Capan-1) [nM] | EC50 (FAMPAC) [nM] | EC50 (PANC-1 [2]) [nM] | AUC [3] [%]
1 | 493 | 6740 | 644 | 1840 | 176 | CC(=O)c1cc2c(o1)C(=O)c1ccccc1C2=O [Napabucasin] | > 10000 | 390 | 1650 | 588 | 5300 | 220 | 6090 | 322 | – | –
2 | 659 | 1070 | 622 | 2200 | 400 | Cc1cnc(Nc2ccc(OCCN3CCCC3)cc2)nc1Nc1cccc(S(=O)(=O)NC(C)(C)C)c1 [Fedratinib] | 320 | 1280 | 8310 | 827 | 1630 | 274 | 2030 | 1010 | – | –
3 | 739 | 9250 | 1160 | > 10000 | 335 | Cc1ccc(C(=O)Nc2ccc(CN3CCN(C)CC3)c(C(F)(F)F)c2)cc1C#Cc1cnc2cccnn12 [Ponatinib] | 618 | 1930 | > 10000 | 620 | 1200 | 357 | > 10000 | 830 | – | –
4 | > 10000 | 347 | > 10000 | > 10000 | > 10000 | C=CC(=O)Nc1cc(Nc2nccc(-c3cn(C)c4ccccc34)n2)c(OC)cc1N(C)CCN(C)C [Osimertinib] | > 10000 | 542 | 5300 | 5530 | 2560 | > 10000 | 5860 | > 10000 | – | –
5 | 2870 | 2930 | 784 | > 10000 | 563 | Cc1cc(Nc2ncc(Cl)c(Nc3ccccc3S(=O)(=O)C(C)C)n2)c(OC(C)C)cc1C1CCNCC1 [Ceritinib] | 4690 | 1550 | > 10000 | 3390 | 2470 | 1450 | 5480 | 2770 | – | –
6 | 3050 | 6650 | > 10000 | 3250 | 3770 | Cc1ccc(NC(=O)c2ccc(CN3CCN(C)CC3)cc2)cc1Nc1nc(-c2cccnc2)cs1 [Masitinib] | > 10000 | 5500 | > 10000 | 4380 | 3880 | 4770 | 3950 | > 10000 | – | –
7 | 114 | 190 | 229 | – | 190 | O=C(/C=C\n1cnc(-c2cc(C(F)(F)F)cc(C(F)(F)F)c2)n1)NNc1cnccn1 [Selinexor] | 61 | 37.7 | 1200 | 64.2 | 113 | 116 | 226 | 97 | 182 | < 60
8 | 4820 | 7270 | 8730 | 7120 | 2370 | C=CC(=O)Nc1cccc(Nc2nc(Nc3ccc(N4CCN(C(C)=O)CC4)cc3OC)ncc2C(F)(F)F)c1 [Rociletinib] | 2750 | 3460 | > 10000 | 2080 | 6290 | 4940 | 6270 | 3580 | – | –
9 | > 10000 | 909 | > 10000 | 3920 | 2210 | COc1cc2ncnc(Nc3ccc(F)c(Cl)c3)c2cc1NC(=O)/C=C/CN1CCCCC1 [Dacomitinib] | 1730 | 46.5 | > 10000 | 3850 | 2440 | 2200 | 10300 | 3270 | – | < 60
10 | 7520 | 2870 | 5190 | > 10000 | 791 | C[C@@H]1CN(C(=O)c2ccc(NC(=O)c3cc(O[C@H](C)c4c(Cl)ccc(F)c4Cl)c(N)nn3)cc2)C[C@H](C)N1 [Ensartinib] | 2000 | 4130 | 2630 | 4440 | 2960 | > 10000 | 1990 | 3600 | – | –
11 | 6420 | 1.6 | > 10000 | 6660 | 1700 | CN(C)C/C=C/C(=O)Nc1cc2c(Nc3ccc(F)c(Cl)c3)ncnc2cc1O[C@H]1CCOC1 [Afatinib] | 9950 | 22.8 | > 10000 | > 10000 | 1.59 | 2740 | 4990 | > 10000 | – | < 60
12 | 3500 | 4900 | 5960 | 5790 | 2720 | CN1CCN(c2ccc(C(=O)Nc3n[nH]c4ccc(Cc5cc(F)cc(F)c5)cc34)c(NC3CCOCC3)c2)CC1 [Entrectinib] | > 10000 | 3900 | > 10000 | > 10000 | > 10000 | > 10000 | 6260 | 5900 | – | –
13 | 1190 | 1610 | 529 | 1780 | 475 | C1=N/C2=N/c3ccc(OCCN4CCCC4)c(c3)COC/C=C/COCc3cccc(c3)C(=C1)N2 [Pacritinib] | 654 | 1340 | 2500 | 971 | 2100 | 477 | 2210 | 1280 | – | –

Row | SMILES | EC50 (BxPC-3) [nM] | EC50 (Colo-357) [nM] | EC50 (AsPC-1) [nM] | EC50 (PANC-1 [1]) [nM] | EC50 (MiaPaCa-2) [nM] | EC50 (Suit2-07) [nM] | EC50 (HPDE) [nM] | EC50 (HuP-T4) [nM] | EC50 (PSN-1) [nM] | EC50 (Dan-G) [nM] | EC50 (PaTu-8988-T) [nM] | EC50 (Capan-1) [nM] | EC50 (FAMPAC) [nM] | EC50 (PANC-1 [2]) [nM] | AUC [3] [%]
14 | CCOc1cc2ncc(C#N)c(Nc3ccc(OCc4ccccn4)c(Cl)c3)c2cc1NC(=O)/C=C/CN(C)C [Neratinib] | 1210 | 1280 | 816 | – | 863 | 1400 | 60.8 | > 10000 | > 10000 | 7080 | 835 | 6740 | 1320 | 8210 | < 60
